Laboratory results: patent US20260306476A1, “ANTIBACTERIAL COMPOUND PBT2” (priority 2022, published 2026)
Values after ≈ are worked out from the molar mass of the structure shown. “Also recorded” adds a separate entry of the source.

Assays:
[1] = Plasma drug level of PBT2 in clinical trial (NCT02249728); format: in vivo, human; details: 250 mg/day; MDR Neisseria gonorrhoeae
[2] = tested on: Neisseria gonorrhoeae strain WHO Z; experiment: Ex vivo Neisseria gonorrhoeae infection of human cervical (Pex) cells; format: cell-based
Description: FIG. 4: Chart indicating PBT2 can cure Neisseria gonorrhoeae infection of human cervical (Pex) cells. […] Ceftriaxone (CRO, positive control) is currently recommended for gonorrhoea treatment. Veh—0.1% DMSO vehicle control; UT—untreated; * p<0.0001 versus vehicle for CRO or PBT2 treatment.
To assess the ability of PBT2 to cure an established gonococcal infection in a human ex vivo system, primary human cervical epithelial (Pex) cells were challenged with Neisseria gonorrhoeae strain WHO Z for 90 min and then treated with 0.1% DMSO (vehicle control), PBT2 (0.016 mg/L to 4.695 mg/L), or ceftriaxone (0.5 mg/L, positive control) for 24 h. Viable gonococci were then enumerated. […] PBT2-induced Pex cell cytotoxicity was not observed during the assay.

[3] = tested on: Neisseria gonorrhoeae WHO Z; experiment: Time-kill assay; format: cell-based; details: PBT2 alone at 0.313 mg/L (MIC)
Description: FIG. 1: Time-kill curves of Neisseria gonorrhoeae WHO Z in GC broth with or without PBT2. Error bars indicate standard deviation from 3 biological replicates.

[4] = tested on: erythromycin-resistant group A Streptococcus (GAS); details: in the absence of an antibiotic; cited from earlier work
Neisseria meningitidis = experiment: MIC / susceptibility across Neisseria meningitidis strains; details: all strains tested; for MIC: Neisseria meningitidis
[5] = tested on: Neisseria meningitidis PMC1 (X); experiment: MIC of PBT2 (broth and agar)
[6] = tested on: Streptococcus uberis (S. uberis); details: in the absence of an antibiotic; cited from earlier work
[7] = tested on: Neisseria gonorrhoeae ATCC49226; experiment: MIC of PBT2 and comparators against CLSI reference strain; format: cell-based
Description: 13 multidrug resistant WHO strains of Neisseria gonorrhoeae were selected to cover antimicrobial resistance phenotypes to all the antibiotics currently used.

[8] = cited from earlier work
[9] = tested on: non-typeable Haemophilus influenzae (NTHi); experiment: Sensitivity across NTHi strains; format: cell-based; details: all strains tested
Experimental: The MIC of PBT2 against five non-typeable Haemophilus influenzae (NTHi) strains was determined (CLSI. 2022. Performance Standards for Antimicrobial Susceptibility Testing, 32nd Edition. Clinical and Laboratory Standards Institute).

Campylobacter jejuni = experiment: Sensitivity across Campylobacter jejuni strains; format: cell-based; details: all strains tested
Experimental: (§1) The MIC of PBT2 against three Campylobacter jejuni strains was determined. All strains tested were sensitive to PBT2.

[10] = tested on: Neisseria meningitidis Z2491 (A); experiment: MIC of PBT2 (broth and agar)
[11] = tested on: Neisseria meningitidis PMC2 (Z/29E); experiment: MIC of PBT2 (broth and agar)
[12] = tested on: Helicobacter pylori CH428; experiment: MIC of PBT2 alone (agar); format: cell-based
[13] = tested on: Neisseria meningitidis PMC19 (W); experiment: MIC of PBT2 (broth and agar)
[14] = tested on: Campylobacter jejuni 81-176; experiment: MIC of PBT2 alone (broth); format: cell-based; details: 81176
Experimental: as §1

[15] = tested on: Campylobacter jejuni NCTC 11168; experiment: MIC of PBT2 alone (broth); format: cell-based; details: NCTC11168
Experimental: as §1

[16] = tested on: Campylobacter jejuni ATCC 33560; experiment: MIC of PBT2 alone (broth); format: cell-based; details: ATCC33560
Experimental: as §1

[17] = tested on: Helicobacter pylori 26695; experiment: MIC of PBT2 alone (agar); format: cell-based
Experimental: The MIC of PBT2 against four Helicobacter pylori 26695 strains was determined. The strains tested were sensitive to PBT2.

[18] = tested on: Helicobacter pylori CH426; experiment: MIC of PBT2 alone (agar); format: cell-based
[19] = tested on: Neisseria meningitidis PMC10 (Y); experiment: MIC of PBT2 (broth and agar)
[20] = tested on: Neisseria meningitidis 8013 (C); experiment: MIC of PBT2 (broth and agar)
Neisseria gonorrhoeae = experiment: Antibiotic resistance development test over 30 days; format: cell-based; details: 30 days of daily subculture; sub-MIC PBT2 (0.156 mg/L)
Experimental: FIG. 2: Antibiotic resistance development assay of PBT2.
Resistance development was tested over a 30 day period with PBT2 and using Kanamycin as a control.

[21] = human; 250 mg/day for up to 72 hours; NCT02249728; cited from earlier work

In the case of `CN(C)Cc1ccc2c(Cl)cc(Cl)c(O)c2n1` [PBT2, 5,7-dichloro-2-[(dimethylamino)methyl]quinolin-8-ol], the “plasma AUC relative to PBT2 MIC (313 ng/ml)” value [1] is reported as 5 fold, the “reduction in Neisseria gonorrhoeae survival” value ([2]; 24 h post-treatment, PBT2 0.016 to 4.695 mg/L, FIG. 4) is reported as “dose-dependent reduction” and the “effectiveness versus ceftriaxone (0.5 mg/L)” value ([2]; >0.157 mg/L PBT2, 24 h) is reported as “comparable effectiveness to that observed for the control antibiotic, ceftriaxone”. The p versus vehicle ([2]; survival at 24 h, FIG. 4, CRO 0.5 mg/L) was less than 0.0001, the “time in which antibacterial activity occurred” value [3] was no more than 3 h and the antibacterial activity [4] was “neither PBT2 nor zinc alone displayed antibacterial activity which would be suitable to treat an infection”. The MIC (Neisseria meningitidis; agar) was 0.039 to 0.156 µg/mL (≈ 0.144 to 0.575 µM), the MIC (Neisseria meningitidis; broth) was 0.156 to 0.625 µg/mL (≈ 0.575 to 2.31 µM) and the sensitivity (Neisseria meningitidis) was “sensitive”. The MIC [5] was 0.039 µg/mL, the antibacterial activity [6] was “neither PBT2 nor zinc alone displayed antibacterial activity which would be suitable to treat an infection” and the MIC ([7]; ATCC49226, ATCC49226, agar) was 0.625 µg/mL. The MIC ([7]; ATCC49226, ATCC49226, broth) was 0.312 µg/mL, the safety and tolerability ([8]; 250 mg daily for up to 12 months, without serious side effects or withdrawal symptoms) was “safe and well-tolerated, without serious side effects or withdrawal symptoms” and the safety ([8]; data from phase II clinical trials) was “safe-for-human-use”. The sensitivity [9] was “sensitive”, the sensitivity (Campylobacter jejuni) was “sensitive” and the MIC ([10]; agar) was 0.039 µg/mL. For the same compound, the MIC ([10]; broth) was 0.156 µg/mL, the MIC ([11]; agar) was 0.039 µg/mL and the MIC ([11]; broth) was 0.156 µg/mL. It also gave an MIC [12] of 2.5 µg/mL, an MIC ([13]; agar) of 0.078 µg/mL and an MIC ([13]; broth) of 0.156 µg/mL. For the same compound, the MIC [14] was 0.156 µg/mL, the MIC [15] was 0.313 µg/mL and the MIC [16] was 0.156 µg/mL. The MIC [17] was 1.25 µg/mL, the MIC [18] was 1.25 µg/mL and the MIC ([19]; agar) was 0.156 µg/mL. For the same compound, the MIC ([19]; broth) was 0.625 µg/mL, the MIC ([20]; agar) was 0.078 µg/mL and the MIC ([20]; broth) was 0.156 µg/mL. The antibiotic resistance development (Neisseria gonorrhoeae) was “No antibiotic resistance was observed; also recorded: no visible development of resistance” and the “plasma drug level (AUC)” value [21] was 1,660 ng*h/ml.
